The results in this text go back to patent US4260599A, “Antifibrotic substance P-1894B” (Takeda Chemical Industries, Ltd., priority 1978, dated 1981).

The subject of data set [1] is protocollagen proline hydroxylase. Briefly: Carbon tetrachloride-induced hepatic cirrhosis: protocollagen proline hydroxylase activity in the liver. To be noted: for Protocollagen proline hydroxylase: liver, 4 weeks, CCl4 group 504 ± 87. It counts as in vivo, Sprague-Dawley rats. The method, then: (§1) Female Sprangue-Dawley rats weighing approximately 110 g each were divided into 4 groups. Group I (control) received saline (1 ml/rat) and Groups II, III and IV received 10% CCl4 -olive oil mixture (1 ml/rat) intraperitoneally twice weekly for a total 8 doses. Groups III and IV received P-1894B orally with food for 4 weeks. Average doses of P-1894B in Groups III and IV were 3.25 and 6.16 mg/kg/day, respectively. The rats were sacrificed a day after the last injection and the livers were immediately removed for the assays.
A 10% homogenate of the liver was prepared in 20 mM Tris-HCl buffer, pH 7.5, containing 0.2 M NaCl, 0.1 M glycine, 5×10^-5 M 1,4-dithiothreitol and 0.1% Triton (polyethylene glycol p-isooctylphenyl ether) X-100 using a Polytron homogenizer. The homogenate was centrifuged at 15,000 g for 20 min and the clear supernatant was assayed for proline hydroxylase activity by the method of Hutton et al [Anal. Biochem. 16, 384-394 (1966)]. The protein content of the homogenate was measured by the method of Lowry et al [J. Biol. Chem. 193, 265-275 (1951)] using bovine serum albumin as the standard.

In data set [2] the target is T1, protocollagen proline hydroxylase (Gallus gallus, UniProt P16924).
T1 construct: partially purified enzyme preparation obtained from chick embryos; from tissue; host or cells: chick embryos
T1 sequence (P16924 1-516): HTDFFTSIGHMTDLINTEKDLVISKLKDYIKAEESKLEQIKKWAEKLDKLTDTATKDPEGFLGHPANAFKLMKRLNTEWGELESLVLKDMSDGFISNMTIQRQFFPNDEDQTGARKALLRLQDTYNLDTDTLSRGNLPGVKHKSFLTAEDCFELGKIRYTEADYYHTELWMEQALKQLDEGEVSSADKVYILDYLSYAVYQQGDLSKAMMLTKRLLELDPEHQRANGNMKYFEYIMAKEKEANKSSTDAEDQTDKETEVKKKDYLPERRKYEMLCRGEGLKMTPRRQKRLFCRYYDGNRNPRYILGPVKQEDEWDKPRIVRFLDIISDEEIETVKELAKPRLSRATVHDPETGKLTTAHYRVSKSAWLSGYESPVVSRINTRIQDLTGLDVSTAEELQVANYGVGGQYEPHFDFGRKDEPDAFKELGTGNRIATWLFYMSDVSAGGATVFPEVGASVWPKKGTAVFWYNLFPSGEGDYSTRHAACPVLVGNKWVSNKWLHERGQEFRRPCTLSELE
T1 sequence (P09102 23-515 partner): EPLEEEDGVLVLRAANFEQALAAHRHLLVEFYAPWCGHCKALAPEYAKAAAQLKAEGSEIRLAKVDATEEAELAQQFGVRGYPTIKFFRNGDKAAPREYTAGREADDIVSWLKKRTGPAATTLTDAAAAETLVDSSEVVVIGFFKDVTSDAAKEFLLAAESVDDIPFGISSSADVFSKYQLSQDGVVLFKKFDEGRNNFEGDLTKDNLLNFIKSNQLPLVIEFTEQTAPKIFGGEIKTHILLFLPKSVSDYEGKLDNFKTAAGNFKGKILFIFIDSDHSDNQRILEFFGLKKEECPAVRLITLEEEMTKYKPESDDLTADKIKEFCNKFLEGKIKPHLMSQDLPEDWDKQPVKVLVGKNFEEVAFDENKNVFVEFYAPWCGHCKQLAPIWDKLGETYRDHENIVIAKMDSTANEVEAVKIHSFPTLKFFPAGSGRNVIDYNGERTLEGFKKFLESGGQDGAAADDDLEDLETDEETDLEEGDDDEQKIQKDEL
The data set is described as follows: Protocollagen proline hydroxylase inhibitor activity. Format: biochemical. To be noted: partially purified enzyme from chick embryos; substrate (Pro-Pro-Gly)5.4H2O.

A short description of data set [3]: Carbon tetrachloride-induced hepatic cirrhosis: body weight. It counts as in vivo, Sprague-Dawley rats. The note with it: 4 weeks. On the procedure:
as §1

Data set [4] can be described thus: Body weight of rats in the uterus collagen test. Format: in vivo, Sprague-Dawley rats. To be noted: 0.3 mg/kg i.p. once daily for 6 days + 17β-estradiol (5 μg); groups of 4 rats. On the procedure:
(§2) Basically in accordance with a procedure described by R. A. Salvador et al [Arch. Biochem. Biophys. 174, 382 (1976)], 0.3 mg/kg was intraperitoneally administered to Sprague-Dawley rats (female, 3 weeks old) once daily for 6 days and the amounts of collagen and non-collagenous proteins in the uteri were compared with the figures for control.

Data set [5] has as its system collagen biosynthesis (uterus). The data set is described as follows: Collagen biosynthesis inhibiting activity in uteri of 17β-estradiol-treated rats. Format: in vivo, Sprague-Dawley rats. The method, then: as §2
The test system of data set [6] is hydroxyproline content of the liver (collagen biosynthesis). The data set is described as follows: Carbon tetrachloride-induced hepatic cirrhosis: hydroxyproline content of the liver. It counts as in vivo, Sprague-Dawley rats. To be noted: for Hydroxyproline: liver, 4 weeks, CCl4 group 145.8 ± 18.3. The method, then: as §1
Hydroxyproline content of the liver was measured in 6 N HCl hydrolysate (110° C., 22h) by the method of Blumenkrantz et al [Anal. Biochem. 63, 331-340 (1975)].

Another data set is described as follows: pKa by titrimetry. It counts as physicochemical. The note with it: in 66.7% aqueous DMF.
Another data set is described as follows: Solubility. Format: physicochemical.
Setting [7] is: 6.16 mg/kg/day, p.o., compared to livers of CCl4-fibrotic rats.
Setting [8] is: CCl4 + P-1894B 3.25 mg/kg/day orally with food.
[9] abbreviates: CCl4 + P-1894B 6.16 mg/kg/day orally with food, P<0.05 vs CCl4, n=5.
Setting [10] is: 0.3 mg/kg i.p. once daily for 6 days + 17β-estradiol (5 μg).

For the compound `C[C@@H]1O[C@@H](O[C@H]2CC[C@H](O[C@H]3[C@H](O)C[C@H](c4ccc5c(c4O)C(=O)C4=C(C5=O)[C@@]5(O)C(=O)C[C@](C)(O[C@H]6CC[C@H](O[C@H]7C=CC(=O)[C@H](C)O7)[C@H](C)O6)C[C@@]5(O)C=C4)O[C@@H]3C)O[C@H]2C)C=CC1=O` [P-1894B], the “specific activity of protocollagen proline hydroxylase in the liver (in words)” value in data set [1] (setting [7]) was “significantly decreased”. Also, the Protocollagen proline hydroxylase in data set [1] (setting [8]) is reported as 457 ± 68 dpm/mg of protein; in data set [1] (setting [9]) it was 357 ± 15 dpm/mg of protein. Also, the “concentration required for a 50% inhibition of 100 μg (as protein) of partially purified enzyme” value in data set [2] is on record as “about 7 μg/ml”. The “weight, final” value in data set [3] (CCl4 + P-1894B 3.25 mg/kg/day orally with food, initial 112 ± 9) is on record as 199 ± 19 g; in data set [3] (CCl4 + P-1894B 6.16 mg/kg/day orally with food, initial 111 ± 5) it was 198 ± 9 g. In data set [4], the “Body weight of rats” value is 72 ± 5 g. Moreover, the “inhibition of the biosynthesis of collagen (in words)” value in data set [5] (0.3 mg/kg i.p. once daily for 6 days) was “inhibited the biosynthesis of collagen specifically and significantly”. In addition, the “% Inhibition, Collagen” value in data set [5] (setting [10]) amounted to 78%. Also, the “% Inhibition, Non-collagenous protein” value in data set [5] (setting [10]) is on record as -21%. Moreover, the “Non-collagenous protein in uterus” value in data set [5] (0.3 mg/kg i.p. once daily for 6 days + 17β-estradiol (5 μg), = total protein - collagen, control (2) 24.21 ± 7.21) was 26.99 ± 4.67 mg. Further, the Collagen in uterus in data set [5] (0.3 mg/kg i.p. once daily for 6 days + 17β-estradiol (5 μg), groups of 4 rats, control (2) 4.39 ± 0.16, p < 0.01 vs control (2)) was 3.41 ± 0.22 mg. In addition, in data set [5] (0.3 mg/kg i.p. once daily for 6 days + 17β-estradiol (5 μg), groups of 4 rats, control (2) 28.6 ± 7.3), the “Total protein of uterus” value is reported as 30.4 ± 5.0 mg. The “hydroxyproline content in the liver (in words)” value in data set [6] (setting [7]) is “significantly decreased”. For the same compound, the Hydroxyproline was 132.4 ± 29.6 μg/100 mg of protein in data set [6] (setting [8]) and 122.6 ± 14.0 μg/100 mg of protein in data set [6] (setting [9]). Moreover, the PKa in the data set “pKa by titrimetry” is recorded as 10.15. Besides, the Solubility entry in “Solubility” (in chloroform, dioxane, ethyl acetate, dimethylsulfoxide, acetone, methyl ethyl ketone, pyridine, methanol, ethanol, benzene, toluene, diethyl ether and 0.1 N NaOH) is “Readily soluble or soluble”; in the data set “Solubility” (in petroleum ether, n-hexane and cyclohexane), “sparingly soluble or insoluble”.
